Columns and labels:
[1] = system: muscarinic cholinergic receptor; test: Functional activity on guinea pig isolated ileum, acetylcholine-induced contractions; format: cell-based; settings: TFZ 5 x 10⁻⁷ M, dose corresponding to the IC₅₀ effective against histamine
Experimental: (§1) The test was essentially meant to characterize the type of activity of the molecules under examination by checking their antagonist activity versus H₁ receptor. To this end, the guinea pig isolated ileum was used for two different tests: a) evaluation of the antagonist activity towards the agonist histamine; b) evaluation of the antagonist activity towards the agonist acetylcholine. Said tests were carried out to check the specificity and selectivity levels of the moleculas under examination.
(§2) Male and female guinea pigs weighing approx. 250 g were used. A portion of terminal ileum was excised and immersed in a bath for isolated organ, in Tyrode solution, at 37°C. The antagonist activity was evaluated by determining the ability of the studied drug to modify the dose-effect curve built with increasing doses of agonist alone. Furthermore, in another series of experiments, increasing doses of the molecules under examination were tested in comparison with a submaximal dose of agonist.
With a view to estimating the antagonist specificity level of the molecule TFZ under examination and taking into account the anticholinergic activity often associated with antihistaminic molecules, the capability of TFZ of antagonizing the acetylcholine (ACh) contraction effect on guinea pig isolated ileum was tested. […]

H₁ receptor [2] = target: T1, H₁ receptor (Cavia porcellus, UniProt P31389); test: Functional activity on guinea pig isolated ileum, histamine-induced contractions; format: cell-based
T1 construct: A portion of terminal ileum was excised and immersed in a bath for isolated organ; from tissue; host or cells: guinea pig isolated terminal ileum
Experimental: as §1, §2
The dose of histamine used was 6.8x10⁻⁸ M. The percentage of inhibition found after adding the tested drug to the bath for isolated organ versus the response obtained from the agonist alone was calculated. Six detections were carried out for each drug concentration. The results, calculated in terms of IC₅₀, corresponded to the drug concentrations responsible for a 50% reduction in the submaximal concentration of the agonist alone.

H₁ receptor [3] = target: T1, H₁ receptor; test: Binding assay under saturation kinetics conditions (Scatchard); parameters: species or system guinea pig; settings: in the presence of TFZ 2 x 10⁻⁷ M
Experimental: These assays (Scatchard) were carried out under the same incubation conditions and according to the conclusive test method described under paragraph 1a), with the exception that the radioligand concentration was changed according to a range of concentrations comprised between 0.3 and 10 nM, in the presence of a concentration of antagonist TFZ of 2 x 10⁻⁷ M.

T1 sequence (P31389 whole entry): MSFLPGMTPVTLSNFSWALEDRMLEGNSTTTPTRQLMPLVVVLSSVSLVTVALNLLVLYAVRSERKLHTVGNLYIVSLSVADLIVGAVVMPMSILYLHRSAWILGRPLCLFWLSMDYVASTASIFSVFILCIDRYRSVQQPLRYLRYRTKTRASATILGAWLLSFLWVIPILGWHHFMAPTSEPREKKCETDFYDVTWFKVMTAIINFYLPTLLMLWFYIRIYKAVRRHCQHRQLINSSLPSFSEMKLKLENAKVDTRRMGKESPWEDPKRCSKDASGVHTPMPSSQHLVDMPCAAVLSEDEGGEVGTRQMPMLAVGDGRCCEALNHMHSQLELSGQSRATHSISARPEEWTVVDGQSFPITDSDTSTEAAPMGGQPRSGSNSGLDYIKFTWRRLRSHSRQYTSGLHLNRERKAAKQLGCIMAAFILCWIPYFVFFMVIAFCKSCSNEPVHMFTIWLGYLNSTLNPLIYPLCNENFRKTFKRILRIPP

CC(C)(c1ccc(C(O)CCCN2CCC(C(O)(c3ccccc3)c3ccccc3)CC2)cc1)c1nn[nH]n1 (racemic) [TFZ, p-1-hydroxy-4-(4-hydroxydiphenylmethyl-1-piperidinyl)-butyl-2-(1H-tetrazol-5-yl)-isopropyl benzene]
inhibitory activity against acetylcholine (ACh) contraction effect [1]: no inhibitory activity
IC₅₀, inhibition of histamine-submaximal contraction (H₁ receptor [2]; histamine 6.8 x 10⁻⁸ M, comparison in words, numbers only in Fig. 5): completely superimposable to that of MET I
agonist activity (contraction of the ileum smooth muscles) (H₁ receptor [2]; increasing doses added to the bath perfusion liquid, no agonist): no agonist activity
type of antagonist activity towards histamine (Lineweaver-Burk) (H₁ receptor [2]; three TFZ concentrations, Fig. 4): competitive antagonist activity
Bmax (density of the binding sites) (H₁ receptor [3]): no significant change

From EP0648759A1, “Antihistaminic compounds, process for their preparation and pharmaceutical compositions containing them” (ERREGIERRE S.p.A., priority 1993, dated 1995)
